Assay results as given in patent US20120021476A1, “Trace Element Solution For Biogas Methods” (AGRAFERM TECHNOLOGIES AG, priority 2007, published 2012).

What was measured:
[1] = equimolar EDTA, neutral pH
Text: If instead of EDTA, complexing agents are used which form complexes of two or several ligands of the complexing agent per metal atom, then a correspondingly multiple (double, multiple) molar amount of the relevant ligands must be used in order to complex the trace elements in the solution.

[2] = cited from earlier work
[3] = cited from earlier work; remark: listed apart in the source
[4] = cited from earlier work; remark: listed apart in the source
[5] = cited from earlier work; remark: listed apart in the source
[6] = cited from earlier work; remark: listed apart in the source
[7] = cited from earlier work; remark: listed apart in the source
[8] = cited from earlier work; remark: listed apart in the source
[9] = cited from earlier work; remark: listed apart in the source
[10] = cited from earlier work; remark: listed apart in the source
[11] = system: aromatic amino acid synthesis; conditions: cited from earlier work

Compound	precipitation in the presence of H2S [1]	complexing of Mg^2+ in words [2]	complexing of Ca^2+ in words [3]	complexing of Fe^2+ in words [4]	complexing of Mn^2+ in words [5]	complexing of Co^2+ in words [6]	complexing of Ni^2+ in words [7]	complexing of Cu^2+ in words [8]	complexing of Fe^3+ in words [9]	complexing of Zn^2+ in words [10]	effect on aromatic amino acid synthesis [11]
O=C(O)CN(CCN(CC(=O)O)CC(=O)O)CC(=O)O [C10H16O8N2, ethylenediaminetetraacetic acid]	no precipitation	well	very well	very well	very well	very well	very well	very well	extremely well	very well	
O=C(O)CNCP(=O)(O)O [C3H8O5NP, n-phosphomethylglicine]											inhibits the aromatic amino acid synthesis
